Like-named read-outs stand apart in the source and are kept apart here. Ends that are not written are not given here.
Assays:
[1] = tested on: rat red blood cells (RRBCs); experiment: Hemolytic assay on rat red blood cells; assay type: cell-based, SD rats; settings: for EC50 / RRBC Hemolysis (hemolysis rate at 320 μg/mL): rat red blood cells 5% (v/v) in PBS, 37 °C 1 h, OD 540 nm; for EC50: four-parameter logistic fit of mean of three independent experiments, '-' = hemolytic activity too low to calculate the EC50; for RRBC Hemolysis (hemolysis rate at 320 μg/mL): peptide 320 μg/mL (highest dose), PBS = 0%, mean of three independent experiments
Description: (§1) Fresh human red blood cells were obtained from healthy donors and collected in a sterile blood collecting vessel covered with sodium citrate (1:9) as the anticoagulating agent. Rat red blood cells were collected from the abdominal aorta in sterile blood-collecting vessels coated with sodium citrate (1:4) after the SD rats were anaesthetized with isoflurane. Then, the cells were washed three times with phosphate-buffered saline via centrifugation (1000× g, 4 °C, 5 min) and prepared in a sterile 96-well polypropylene plate to achieve a final concentration of 5% (v/v). Twofold dilutions of the peptides were prepared in PBS to 100 μL and mixed with an equal volume of HRBCs/RRBCs suspension to final peptide concentrations ranging from 10 to 320 μg/mL. After coincubation at 37 °C for 1 h, the plate was centrifuged (2000× g, 4 °C, 20 min), and 100 μL of supernatant was taken for optical density measurements at 540 nm using a microtiter plate reader (SpectraMax 190). The HRBCs/RRBCs were assayed with PBS (blank) or 1% Triton X-100 (positive control) to represent 0% and 100% hemolysis, respectively. The percent hemolysis was calculated according to the following equation: Hemolysis Rate (%) = 100% × (Amastoparans − Ablank)/(ATriton X-100 − Ablank). Three independent experiments were performed, and the mean hemolysis rate at each dose was used to calculate the EC50 in Sigmaplot software.
(§2) Statistical analysis was performed with GraphPad Prism software (version 5.0, San Diego, CA, USA). A two-tailed Student’s t-test was used to calculate the statistical probability in this study. Differences in the data were considered to be statistically significant when the p value was equal to or less than 0.05. The curve of hemolysis induced by wasp mastoparans was generated in SigmaPlot 12.5 software, and the EC50 was calculated according to the equation (Four Parameter Logistic Curve): y = min + (max − min)/(1 + (x/EC50)^−Hillslope). The heat map of hemolytic activity of mastoparan peptide was analysed in R software which is based on the value of log2(EC50).

[2] = tested on: human red blood cells (HRBCs); experiment: Hemolytic assay on human red blood cells; assay type: cell-based; settings: for EC50 / HRBC Hemolysis (hemolysis rate at 320 μg/mL): human red blood cells 5% (v/v) in PBS, 37 °C 1 h, OD 540 nm; for EC50: four-parameter logistic fit of mean of three independent experiments, '-' = hemolytic activity too low to calculate the EC50; for HRBC Hemolysis (hemolysis rate at 320 μg/mL): peptide 320 μg/mL (highest dose), PBS = 0%, mean of three independent experiments; for hemolytic activity on HRBCs, result in words: mutants relative to Protopolybia-MPIII
Description: as §1, §2

[3] = tested on: S. aureus; settings: reported antibacterial activity; reference per peptide in Table 3; cited from earlier work
[4] = tested on: E. coli; settings: reported antibacterial activity; reference per peptide in Table 3; cited from earlier work
[5] = tested on: B. subtilis; settings: reported antibacterial activity; reference per peptide in Table 3; cited from earlier work
[6] = Table 2 series, read-out: RRBC EC50 (hemolytic activity), Protopolybia-MPIII and mutants
[7] = Table 2 series, read-out: HRBC EC50 (hemolytic activity), Protopolybia-MPIII and mutants
[8] = peptide 10-320 μg/mL twofold dilutions, 1% Triton X-100 = 100%, read-out: RRBC EC50 (hemolytic activity)
[9] = peptide 10-320 μg/mL twofold dilutions, 1% Triton X-100 = 100%, read-out: HRBC EC50 (hemolytic activity)

Substance	EC50 [1, 6]	EC50 [2, 7]	RRBC Hemolysis (hemolysis rate at 320 μg/mL) ([1]; 1% Triton X-100 = 100%)	EC50 [1, 8]	HRBC Hemolysis (hemolysis rate at 320 μg/mL) ([2]; 1% Triton X-100 = 100%)	EC50 [2, 9]	hemolytic activity on HRBCs, result in words [2]	EC50 ([2]; peptide 10-320 μg/mL twofold dilutions, 1% Triton X-100 = 100%, listed as Polybia-MPII, read-out: HRBC EC50 (hemolytic activity))	MIC S. aureus [3]	MIC E. coli [4]	MIC B. subtilis [5]	hemolytic activity on RRBCs, result in words [1]
INWLKLGKKVIDAL-NH2 [Protopolybia-MPIII-1]	158 ± 2.3 µM	176.4 ± 1 µM										
INWLKLGKKVIDIL-NH2 [Protopolybia-MPIII-7]	57.5 ± 2.7 µM	37.8 ± 3.7 µM										
INWLKLGKKVSAIL-NH2 [Protopolybia-MP I]	> 400 µM	> 400 µM	5%	> 400 µM	5%	> 400 µM	almost no hemolytic activity					
INWLKLGKMVIDAL-NH2 [Polybia-MP II]			100%	29.1 ± 1.5 µM	91%	23.3 ± 1.4 µM		≤ 400 µM				
INWLKLGKQILGAL-NH2 [Pm-R3]			100%	73.5 ± 5.1 µM	100%	32.3 ± 1.7 µM						
KDLHTVVSAILQAL-NH2 [OdVP3a]			27%	> 400 µM	24%	> 400 µM			>200 µM	>200 µM	10 µM	
LKLLGIVKKVLGAI-NH2 [EMP-EM2]			2%	> 400 µM	8%	> 400 µM			17 µM	3 µM	68 µM	
LKLMGIVKKVLGAL-NH2 [EMP-EM1]			7%	> 400 µM	21%	> 400 µM			34 µM	7 µM	68 µM	
LNFKALAALAKKIL-NH2 [Pm-R2]			34%	250 ± 9.9 µM	66%	166 ± 8 µM						
LNLKGIFKKVASLLT-OH [Eumenitin]			4%	> 400 µM	6%	> 400 µM	almost no hemolytic activity		6 µM	6 µM	>60 µM	almost no hemolytic activity
LNLKGLFKKVASLLT [Eumenitin-F]			44%	207.1 ± 2 µM	67%	157 ± 2.6 µM						
LNLKGLIKKVASLLN-OH [Eumenitin-R]			7%	> 400 µM	5%	> 400 µM	almost no hemolytic activity		60 µM	30 µM		almost no hemolytic activity
VDWKKIGQHILSVL-NH2 [Mastoparan-J]			100%	60.1 ± 1.3 µM	100%	69.5 ± 3.2 µM						

— PMC10611374, “Characterization of the Hemolytic Activity of Mastoparan Family Peptides from Wasp Venoms” (Toxins, 2023)
